This is an account of results in patent US11384078B2, “5,6-fused-bicyclic compounds and compositions for the treatment of parasitic diseases” (NOVARTIS AG, priority 2017, dated 2022).

Holding throughout (type): cell-based
In test [1] the test system is Leishmania donovani axenic amastigote. Kind of test: In vitro assay for growth inhibition of Leishmania donovani axenic amastigote (Cell TiterGlo luminescence). The note with it: Leishmania donovani, read-out: L. donovani amastigotes EC50. On the procedure: Abbreviations as used herein below have the corresponding meaning: • CPRG Chlorophenol Red-P-D-galactopyranoside • ATP adenosine triphosphate • BSA bovine serum albumin • DMSO dimethyl sulfoxide • FBS fetal bovine serum • PBS phosphate buffered saline • RPMI 1640 Rosweli Park Memorial Institute (RPMI) 1640 medium In Vitro Assay for Growth Inhibition of Leishmania donovani Axenic Amastiqote
Leishmania donovani axenic amastigote parasites are grown at 37° C., 5% CO2 in media made of RPMI 1640, 4 mM L-glutamine, 20% heat inactivated FBS, 100 units/ml of penicillin and 100 μg/ml of streptomycin, 23 μM folic acid, 100 μM adenosine, 22 mM D-glucose, 25 mM MES. The pH of media is adjusted to 5.5 at 37° C. using HCl. 20 μL of media is first dispensed into 384 well plates and 100 nL of the compounds of invention in DMSO are added to the plate wells. At the same time control compounds and DMSO are added to plates to serve as the positive and negative controls, respectively. 40 μL of parasite culture (9600 parasites) are then added to the plate wells. The plates are then placed into incubators. After two days incubation, 20 μL of Cell TiterGlo® (Promega) is added to the plate wells. The luminescence signal of each well is measured using the Envision reader (Perkin Elmer).
In general terms: In ATP-based viability assays light output follows the ATP content of the culture.

The test system of test [2] is Trypanosoma brucei brucei (Lister 427) strain. Nature of the test: Assay for growth inhibition against Trypanosoma brucei brucei (Cell TiterGlo ATP luminescence). Particulars: T. brucei brucei (Lister 427), read-out: T. Brucei (HAT) EC50. As to the method:
Assay for Growth Inhibition Against Trypanosoma brucei brucei
The proliferation is quantified by the addition of Cell TiterGlo® (Promega®) a luminescent cell viability assay that measures the number of viable cells in culture based on the quantification of cellular ATP amount, which is an indicator of metabolically active cells.
Trypanosoma brucei brucei (Lister 427) strain was grown in Hirumi 9 (HMI-9) media supplemented with 10% v/v fetal bovine serum (FBS) and 10% v/v serum plus. For measurement of cell proliferation inhibition, test compounds were three fold serially diluted in duplicates to 384-well white plates, resulting in 10 dilutions for each compound. A volume of 40 μL of T. b. brucei culture (10,000 parasites/mL) was added to each well, and the assay plates were incubated at 37° C. for 2 days in a CO2 incubator. Growth inhibition was monitored by measuring ATP levels, which, is used as a surrogate marker for growth. Relative luminescence units were measured using TECAN® M1000 after 30 min of adding 40 μl of Cell TiterGlo®. IC50 values were determined by analyzing the data using HELIOS software. IC50 is defined as the lowest concentration of the compound that inhibited 50% growth of the T. b. brucei wild type strain compared to untreated controls.

The subject of test [3] is Trypanosoma cruzi amastigotes cultured in 3T3 fibroblast cells. Kind of test: Assay for growth inhibition of kinetoplastid parasite Trypanosoma cruzi (beta-galactosidase Tulahuen strain, CPRG readout). Particulars: Trypanosoma cruzi, Fibroblast, Table 4: compound of Formula (I) compared with compounds having a different core; read-out: Buckner infectious T. cruzi EC50. An excerpt:
Assay for Growth Inhibition of Kinetoplastid Parasite Trypanosoma cruzi
Compounds of the invention can be assayed for inhibitor activity against Trypanosoma cruzi amastigotes cultured in 3T3 fibroblast cells. The assay is done using the mammalian stage (amastigotes) of T. cruzi that replicates in the intracellular space of host cells. The host cells are initially infected with the culture-derived trypomastigotes that rapidly invade and then divide as amastigotes. The protocol uses the Tulahuen strain of T. cruzi that has been engineered to express the E. coli beta-galactosidase gene (Lac-Z) (Antimicr. Agents Chemoth. 40:2592, 1996). This allows for a colorimetric readout by using the substrate CPRG and an absorbance plate reader.
3T3 fibroblast cells are re-suspended in RPMI-1640 medium without phenol red medium supplemented with 10% FBS (heat inactivated), 100 μg/ml penicillin, and 100 μg/ml streptomycin. Forty μL of suspension (1,000 cells) is dispensed into 384-well plates and incubated overnight at 37° C. temperature and in atmosphere containing 5% CO2. The following day, 100 nL of compounds of the invention in DMSO are added to plate wells containing 3T3 cells. At the same time control compounds (benznidazole and nifurtimox) and DMSO are added to plates to serve as the positive and negative controls, respectively. After that, 10 μL of media containing 10,000 T. cruzi trypomastigotes are added to each plate well and plates are placed back into incubators. After 6 day incubation, 10 μL of reagent solution (0.6 mM CPRG, 0.6% NP-40 in PBS) is added to plates and incubated at room temperature for 2 hours. Absorbance is then measured on SpectraMax GEMINI fluorimeter to determine relative number of T. cruzi cells present in each plate well.

The mark [4] stands for this setting: L. donovani axenic amastigotes in vitro.

Read-outs that look alike come from different tables or passages of the source.

As usually defined, the EC50 is the concentration needed to bring the measured effect to its halfway point. For `O=C(Nc1ccc(F)c(-n2cc3cc(-c4ccccn4)cnc3n2)c1)C1CC1` [Compound 12, N-{4-fluoro-3-[5-(pyridin-2-yl)-2H-pyrazolo[3,4-b]pyridin-2-yl]phenyl}cyclopropanecarboxamide], the EC50 in test [1] (setting [4]) was 41 nM; in test [2] (Trypanosoma brucei), under 23 nM.

As to `O=C(CC1CC1)Nc1ccc(F)c(-n2cc3cc(-c4ccccn4)cnc3n2)c1` [Compound 13, 2-cyclopropyl-N-{4-fluoro-3-[5-(pyridin-2-yl)-2H-pyrazolo[3,4-b]pyridin-2-yl]phenyl}acetamide], the EC50 in test [1] (setting [4]) was 71 nM; in test [2] (Trypanosoma brucei), under 23 nM.

Regarding `O=C(Nc1ccc(F)c(-n2cc3cc(N4CC(F)C4)cnc3n2)c1)N1CCC1` [Compound 40, N-{4-fluoro-3-[5-(3-fluoroazetidin-1-yl)-2H-pyrazolo[3,4-b]pyridin-2-yl]phenyl}azetidine-1-carboxamide], the EC50 in test [2] is under 23 nM.

In the case of `O=C(Nc1ccc(F)c(-n2cc3cc(N4CC(F)C4)cnc3n2)c1)N1CC(F)C1` [Compound 58, 3-fluoro-N-{4-fluoro-3-[5-(3-fluoroazetidin-1-yl)-2H-pyrazolo[3,4-b]pyridin-2-yl]phenyl}azetidine-1-carboxamide], the EC50 in test [2] was under 23 nM.

Take `O=C(Nc1ccc(F)c(-n2cc3cc(N4CC(F)(F)C4)cnc3n2)c1)N1CCC1` [Compound 92, N-{3-[5-(3,3-difluoroazetidin-1-yl)-2H-pyrazolo[3,4-b]pyridin-2-yl]-4-fluorophenyl}azetidine-1-carboxamide]: in test [2], the EC50 is under 23 nM.

For `CC(C)c1cnc2nn(-c3cc(NC(=O)C4CC(F)C4)ccc3F)cc2c1` (stereo not shown) [Compound 121, 3-fluoro-N-{4-fluoro-3-[5-(propan-2-yl)-2H-pyrazolo[3,4-b]pyridin-2-yl]phenyl}cyclobutane-1-carboxamide], the EC50 in test [1] (setting [4]) stood at 210 nM; in test [2] (Trypanosoma brucei), 120 nM.

In the case of `O=C(Nc1ccc(F)c(-n2cc3cc(N4CC5CCC(C4)O5)cnc3n2)c1)N1CC(F)C1` [Compound 184, 3-fluoro-N-[4-fluoro-3-(5-{8-oxa-3-azabicyclo[3.2.1]octan-3-yl}-2H-pyrazolo[3,4-b]pyridin-2-yl)phenyl}azetidine-1-carboxamide], the EC50 was 7.3 nM in test [1] (setting [4]) and under 23 nM in test [2] (Trypanosoma brucei).

Consider `COCCNc1cnc2nn(-c3cc(NC(=O)N4CC(F)C4)ccc3F)cc2c1` [Compound 185, 3-fluoro-N-(4-fluoro-3-{5-[(2-methoxyethyl)amino]-2H-pyrazolo[3,4-b]pyridin-2-yl]phenyl)azetidine-1-carboxamide], for which the EC50 is 200 nM in test [1] (setting [4]) and under 23 nM in test [2] (Trypanosoma brucei).

With `O=C(Nc1ccc(F)c(-n2cc3cc(N4CCn5cnnc5C4)cnc3n2)c1)N1CC(F)C1` [Compound 186, 3-fluoro-N-[4-fluoro-3-(5-{5H,6H,7H,8H-[1,2,4]triazolo[4,3-a]pyrazin-7-yl}-2H-pyrazolo[3,4-b]pyridin-2-yl)phenyl}azetidine-1-carboxamide], the EC50 in test [1] (setting [4]) was found to be 460 nM; in test [2] (Trypanosoma brucei) it was 240 nM.

Consider `O=C(Nc1ccc(F)c(-n2cc3cc(-c4ncccc4F)cnc3n2)c1)N1CC(F)C1` [Compound 187, 3-fluoro-N-(4-fluoro-3-(5-(3-fluoropyridin-2-yl)-2H-pyrazolo[3,4-b]pyridin-2-yl)phenyl)azetidine-1-carboxamide], for which the EC50 in test [1] (setting [4]) was 1.3 nM; in test [2] (Trypanosoma brucei) it was under 23 nM.

On to `O=C(Nc1ccc(F)c(-n2cc3cc(-c4ncccc4Cl)cnc3n2)c1)N1CC(F)C1` [Compound 188, N-{3-[5-(3-chloropyridin-2-yl)-2H-pyrazolo[3,4-b]pyridin-2-yl]-4-fluorophenyl}-3-fluoroazetidine-1-carboxamide], for which the EC50 is 2.4 nM in test [1] (setting [4]) and under 23 nM in test [2] (Trypanosoma brucei).

On to `O=C(Nc1ccc(F)c(-n2cc3cc(-c4cccnc4)cnc3n2)c1)N1CC(F)C1` [Compound 189, 3-fluoro-N-{4-fluoro-3-[5-(pyridin-3-yl)-2H-pyrazolo[3,4-b]pyridin-2-yl]phenyl}azetidine-1-carboxamide], for which the results for the EC50 in test [1] (setting [4]) and in test [2] (Trypanosoma brucei) were 3 nM and under 23 nM, respectively.

`C[C@@H]1CN(c2cnc3nn(-c4cc(NC(=O)N5CC(F)C5)ccc4F)cc3c2)C[C@H](C)O1` [Compound 190, N-(3-{5-[(2R,6S)-2,6-dimethylmorpholin-4-yl]-2H-pyrazolo[3,4-b]pyridin-2-yl]-4-fluorophenyl)-3-fluoroazetidine-1-carboxamide]: the concentration for a half-maximal effect (EC50) in test [2] is over 50000 nM.

For the compound `O=C(Nc1ccc(F)c(-n2cc3cc(N4CCC45COC5)cnc3n2)c1)N1CC(F)C1` [Compound 191, 3-fluoro-N-[4-fluoro-3-(5-{6-oxa-1-azaspiro[3.3]heptan-1-yl}-2H-pyrazolo[3,4-b]pyridin-2-yl)phenyl}azetidine-1-carboxamide], the EC50 in test [2] is under 23 nM.

On to `COCC1CN(c2cnc3nn(-c4cc(NC(=O)N5CC(F)C5)ccc4F)cc3c2)C1` [Compound 192], for which, in test [2], the concentration giving a half-maximal response (EC50) was under 23 nM.

As to `O=C(Nc1ccc(F)c(-n2cc3cc(N4CC5(CC5)C4)cnc3n2)c1)N1CC(F)C1` [Compound 193, N-[3-(5-{5-azaspiro[2.3]hexan-5-yl}-2H-pyrazolo[3,4-b]pyridin-2-yl)-4-fluorophenyl}-3-fluoroazetidine-1-carboxamide], in test [2], the EC50 was under 23 nM.

Consider `O=C(Nc1ccc(F)c(-n2cc3cc(N4C[C@@H](F)[C@H](F)C4)cnc3n2)c1)N1CC(F)C1` [Compound 194, N-(3-{5-[(3R,4R)-3,4-difluoropyrrolidin-1-yl]-2H-pyrazolo[3,4-b]pyridin-2-yl]-4-fluorophenyl)-3-fluoroazetidine-1-carboxamide], for which the half-maximal effective concentration (EC50) in test [2] is under 23 nM.

In the case of `[2H]C([2H])([2H])c1nc(C)c(C(=O)Nc2ccc(F)c(-n3cc4cc(-c5ncccc5C)cnc4n3)c2)o1` [Compound 278, N-{4-fluoro-3-[5-(3-methylpyridin-2-yl)-2H-pyrazolo[3,4-b]pyridin-2-yl]phenyl}-2-(^2H3)methyl-4-methyl-1,3-oxazole-5-carboxamide], the EC50 in test [1] (setting [4]) is 7 nM; in test [2] (Trypanosoma brucei), 13 nM.

For the compound `O=C(Nc1ccc(F)c(-n2cc3cc(C4CCCCO4)cnc3n2)c1)N1CCC1` (stereo not shown) [Compound 288, N-(4-fluoro-3-(5-(tetrahydro-2H-pyran-2-yl)-2H-pyrazolo[3,4-b]pyridin-2-yl)phenyl)azetidine-1-carboxamide], the EC50 in test [1] (setting [4]) is 176 nM; in test [2] (Trypanosoma brucei) it was 260 nM.

As for `O=C(Nc1ccc(F)c(-n2cc3cc(C4COCCO4)cnc3n2)c1)N1CCC1` (stereo not shown) [Compound 289, N-{3-[5-(1,4-dioxan-2-yl)-2H-pyrazolo[3,4-b]pyridin-2-yl]-4-fluorophenyl}azetidine-1-carboxamide], the EC50 in test [1] (setting [4]) worked out at 199 nM; in test [2] (Trypanosoma brucei), 208 nM.

As for `Cc1nc(C)c(C(=O)Nc2ccc(F)c(-c3cn4cc(C(C)C)cnc4n3)c2)o1` [reference compound], the results for the EC50 in test [1] (Table 4: compound of Formula (I) compared with compounds having a different core) and in test [3] were 180 nM and 48 nM, respectively.
